Results as given in PMC9133015 (Nature Communications, 2022).
Values joined by “and” are separate entries in the source; they are usually repeats but may differ in a detail not shown here. Equal values may be shown once.

Assays:
[1] = tested on: DU145 xenograft; test: H&E and Ki67 staining of xenograft tumor tissues; assay type: in vivo, BALB/c nude mice; settings: DU145, reference drug groups, replicates
[2] = tested on: 22Rv1 cells; test: Apoptosis assay (Annexin V-APC/PI flow cytometry); assay type: cell-based, human; settings: 22Rv1, 0.5 μM, replicates
[3] = tested on: PC-3 cells; test: Apoptosis assay (Annexin V-APC/PI flow cytometry); assay type: cell-based, human; settings: PC-3; 2 µM; replicates
[4] = tested on: DU145 cells; test: Apoptosis assay (Annexin V-APC/PI flow cytometry); assay type: cell-based, human; settings: DU145, 2 μM, replicates
[5] = tested on: 22Rv1 cells; test: Cell cycle assay (PI flow cytometry); assay type: cell-based, human; settings: 22Rv1, 0.5 μM, replicates
[6] = tested on: PC-3 cells; test: Cell cycle assay (PI flow cytometry); assay type: cell-based, human; settings: PC-3, 2 µM, replicates
[7] = tested on: DU145 cells; test: Cell cycle assay (PI flow cytometry); assay type: cell-based, human; settings: DU145, 2 μM, replicates
[8] = tested on: 22Rv1 cells; test: Anti-proliferation activity assay (CCK8, 72 h); assay type: cell-based, human; settings: 22Rv1; for Relative proliferation rate (%) / optical density: replicates
[9] = tested on: PC-3 cells; test: Invasion assay (transwell); assay type: cell-based, human; settings: PC-3; 2 µM; replicates
[10] = tested on: DU145 cells; test: Invasion assay (transwell); assay type: cell-based, human; settings: DU145, 2 μM, replicates
[11] = tested on: 22Rv1 cells; test: Migration assay (transwell); assay type: cell-based, human; settings: 22Rv1, 0.5 μM, replicates
[12] = tested on: PC-3 cells; test: Migration assay (transwell); assay type: cell-based, human; settings: PC-3; 2 µM; replicates
[13] = tested on: DU145 cells; test: Migration assay (transwell); assay type: cell-based, human; settings: DU145, 2 μM, replicates
[14] = tested on: 22Rv1 cells; test: Invasion assay (transwell); assay type: cell-based, human; settings: 22Rv1, 0.5 μM, replicates
[15] = tested on: DU145 xenograft; test: In vivo antitumor activity, DU145 xenograft mouse model; design: species or system BALB/c nude mice; settings: for Body weight (Fig. 7b) / Tumor volume (Fig. 7a): individual mice 1-10
[16] = tested on: PC-3 cells; test: Anti-proliferation activity assay (CCK8, 72 h); assay type: cell-based, human; settings: PC-3; for Relative proliferation rate (%) / optical density: replicates
[17] = tested on: DU145 cells; test: Anti-proliferation activity assay (CCK8, 72 h); assay type: cell-based, human; settings: DU145; for Relative proliferation rate (%) / optical density: replicates

CC(=O)c1c(C)c2cnc(Nc3ccc(N4CCNCC4)cn3)nc2n(C2CCCC2)c1=O [palbociclib]
Positive rate ( % ) (Fig. 7f) [1]: 31.83% and 31.88% and 31.79% | Apoptosis (%) [2]: 5.82% and 6.41% and 7.27% | Apoptosis (%) [3]: 13.98% and 14.78% and 15.2% | Apoptosis (%) [4]: 16.25% and 14.39% and 12.36% | Cell cycle percentages ( % ) G0/G1 [5]: 79.03% and 81.73% and 83.36% | Cell cycle percentages ( % ) G2/M [5]: 9.98% and 8.76% and 8.18% | Cell cycle percentages ( % ) S [5]: 10.99% and 9.51% and 8.46% | Cell cycle percentages ( % ) G0/G1 ([6]; G0/G1): 84.02% and 87.57% and 88.06% | Cell cycle percentages ( % ) G2/M ([6]; G2/M): 10.01% and 8.39% and 8.02% | Cell cycle percentages ( % ) S ([6]; S): 5.97% and 4.04% and 3.92% | Cell cycle percentages ( % ) G0/G1 [7]: 59.02% and 61.19% and 64.25% | Cell cycle percentages ( % ) G2/M [7]: 23.03% and 20.58% and 18.04% | Cell cycle percentages ( % ) S [7]: 17.95% and 18.23% and 19.71% | Relative proliferation rate (%) mean ([8]; 0.0049 uM): 10.7151% | Relative proliferation rate (%) ([8]; 0.0049 uM): 10.6906% and 8.054% and 13.4011% | optical density ([8]; 0.0049 uM): 0.944 and 0.959 and 0.937 | Relative proliferation rate (%) mean ([8]; 0.078 uM): 28.5598% | Relative proliferation rate (%) ([8]; 0.078 uM): 28.5714% and 25.4075% and 31.7006% | optical density ([8]; 0.078 uM): 0.755 and 0.778 and 0.739 | Relative proliferation rate (%) mean ([8]; 0.3125 uM): 42.3403% | Relative proliferation rate (%) ([8]; 0.3125 uM): 42.3841% and 37.8715% and 46.7652% | optical density ([8]; 0.3125 uM): 0.609 and 0.648 and 0.576 | Relative proliferation rate (%) mean ([8]; 1.25 uM): 63.5644% | Relative proliferation rate (%) ([8]; 1.25 uM): 63.5762% and 60.0192% and 67.098% | optical density ([8]; 1.25 uM): 0.385 and 0.417 and 0.356 | Relative proliferation rate (%) mean ([8]; 5 uM): 73.8099% | Relative proliferation rate (%) ([8]; 5 uM): 73.6991% and 70.3739% and 77.3567% | optical density ([8]; 5 uM): 0.278 and 0.309 and 0.245 | Relative proliferation rate (%) mean ([8]; 20 uM): 83.6751% | Relative proliferation rate (%) ([8]; 20 uM): 83.6329% and 79.9616% and 87.4307% | optical density ([8]; 20 uM): 0.173 and 0.209 and 0.136 | Relative proliferation rate (%) mean ([8]; 80 uM): 92.6404% | Relative proliferation rate (%) ([8]; 80 uM): 92.6206% and 87.0566% and 98.244% | optical density ([8]; 80 uM): 0.078 and 0.135 and 0.019 | Cell invasion (cell number) [9]: 1678 cell number and 1789 cell number and 1654 cell number | Cell invasion (cell number) [10]: 1998 cell number and 2045 cell number and 2102 cell number | Cell migration (cell number) [11]: 1008 cell number and 1108 cell number and 1169 cell number | Cell migration (cell number) [12]: 267 cell number and 257 cell number and 249 cell number | Cell migration (cell number) [13]: 4289 cell number and 4310 cell number and 4198 cell number | Cell invasion (cell number) [14]: 531 cell number and 470 cell number and 513 cell number | antitumor activity (in words) ([15]; DU145 xenograft, 100 mg/kg orally once a day, seven weeks): only delayed the tumor growth | Body weight (Fig. 7b) ([15]; Day 1): 20.6 and 19.7 and 20.3 (2×) and 19.6 and 19.8 and 20.4 and 20.1 and 21.5 and 21.1 | Tumor volume (Fig. 7a) ([15]; Day 1, in cm³ (unit assumed)): 0.06799 and 0.07327 and 0.07849 and 0.09349 and 0.07486 and 0.07173 and 0.06955 and 0.08095 and 0.1033 and 0.07176 | Body weight (Fig. 7b) ([15]; Day 3): 20.9 and 20.1 and 20.5 and 19.9 and 20.3 and 20.7 (2×) and 20.4 and 21.5 (2×) | Tumor volume (Fig. 7a) ([15]; Day 3): 0.109 (2×) and 0.1112 and 0.1321 and 0.1287 and 0.1049 and 0.09325 and 0.1073 and 0.1517 and 0.1054 | Body weight (Fig. 7b) ([15]; Day 5): 21.2 and 20.4 and 20.7 (2×) and 20.2 and 20.5 and 20.8 and 21.6 and 21.8 and 20.9 | Tumor volume (Fig. 7a) ([15]; Day 5, in cm³ (unit assumed)): 0.1433 and 0.1864 and 0.1614 and 0.176 and 0.1543 and 0.1645 and 0.1193 and 0.1528 and 0.2268 and 0.2014 | Tumor volume (Fig. 7a) ([15]; Day 7, in cm³ (unit assumed)): 0.1784 and 0.235 and 0.2414 and 0.2692 and 0.217 and 0.2962 and 0.1705 and 0.2421 and 0.3416 and 0.2763 | Body weight (Fig. 7b) ([15]; Day 7, in g (unit assumed)): 21.5 and 20.6 and 21 and 20.5 and 20.7 and 21.1 and 20.9 and 21.9 and 22.1 and 21.2 | Body weight (Fig. 7b) ([15]; Day 9): 21.7 and 21 and 21.5 (2×) and 20.9 and 21.3 (2×) and 21.2 and 22.3 and 22.5 | Tumor volume (Fig. 7a) ([15]; Day 9, in cm³ (unit assumed)): 0.239 and 0.3072 and 0.3051 and 0.3239 and 0.2873 and 0.3055 and 0.2456 and 0.3235 and 0.4654 and 0.3489 | Body weight (Fig. 7b) ([15]; Day 11): 22.1 and 21.4 and 21.9 and 21.2 and 21.6 and 21.7 and 21.5 (2×) and 22.6 and 22.9 | Tumor volume (Fig. 7a) ([15]; Day 11, in cm³ (unit assumed)): 0.3066 and 0.4081 and 0.3897 and 0.4352 and 0.3512 and 0.3909 and 0.2984 and 0.4401 and 0.56 and 0.4357 | Tumor volume (Fig. 7a) ([15]; Day 13, in cm³ (unit assumed)): 0.3785 and 0.467 and 0.4591 and 0.5566 and 0.4456 and 0.4658 and 0.368 and 0.5218 and 0.6407 and 0.5062 | Body weight (Fig. 7b) ([15]; Day 13, in g (unit assumed)): 22.5 and 21.7 and 22.2 and 21.4 and 21.9 and 22.1 and 21.6 and 23.1 and 23.2 and 21.8 | Body weight (Fig. 7b) ([15]; Day 15): 22.9 and 22 and 22.4 and 21.6 and 22.1 (2×) and 22.5 and 21.7 and 23.3 and 23.5 | Tumor volume (Fig. 7a) ([15]; Day 15, in cm³ (unit assumed)): 0.4581 and 0.5316 and 0.5555 and 0.6598 and 0.5071 and 0.5543 and 0.4465 and 0.6242 and 0.7718 and 0.6156 | Body weight (Fig. 7b) ([15]; Day 17): 23.1 (2×) and 22.2 and 22.7 (2×) and 21.9 and 22.4 and 21.6 and 23.7 and 22.3 | Tumor volume (Fig. 7a) ([15]; Day 17, in cm³ (unit assumed)): 0.5062 and 0.5921 and 0.6502 and 0.7599 and 0.6087 and 0.6352 and 0.4918 and 0.6837 and 0.8676 and 0.6822 | Body weight (Fig. 7b) ([15]; Day 19): 23.4 (2×) and 22.5 and 23.1 (2×) and 22.3 and 22.8 and 21.9 and 23.9 and 22.6 | Tumor volume (Fig. 7a) ([15]; Day 19, in cm³ (unit assumed)): 0.5936 and 0.6347 and 0.7034 and 0.8268 and 0.6585 and 0.679 and 0.5363 and 0.7534 and 0.9195 and 0.6727 | Tumor weight (Fig. 7c) ([15]; reference drug groups, individual mice, in g (unit assumed)): 1.87 and 2.14 and 1.86 and 2.29 and 1.85 and 1.63 and 1.81 and 1.69 and 1.58 | Relative proliferation rate (%) mean ([16]; 0.078 uM): 8.515% | Relative proliferation rate (%) ([16]; 0.078 uM): 4.665% and 8.515% and 12.3646% | optical density ([16]; 0.078 uM): 0.981 and 0.967 and 0.971 | Relative proliferation rate (%) mean ([16]; 0.3125 uM): 12.5396% | Relative proliferation rate (%) ([16]; 0.3125 uM): 9.427% and 12.4882% and 15.704% | optical density ([16]; 0.3125 uM): 0.932 and 0.925 and 0.934 | Relative proliferation rate (%) mean ([16]; 1.25 uM): 26.3574% | Relative proliferation rate (%) ([16]; 1.25 uM): 21.0884% and 26.3955% and 31.5884% | optical density ([16]; 1.25 uM): 0.812 and 0.778 and 0.758 | Relative proliferation rate (%) mean ([16]; 5 uM): 54.2128% | Relative proliferation rate (%) ([16]; 5 uM): 49.8542% and 54.21% and 58.574% | optical density ([16]; 5 uM): 0.516 and 0.484 and 0.459 | Relative proliferation rate (%) mean ([16]; 20 uM): 74.7111% | Relative proliferation rate (%) ([16]; 20 uM): 68.7075% and 74.7398% and 80.6859% | optical density ([16]; 20 uM): 0.322 and 0.267 and 0.214 | Relative proliferation rate (%) mean ([16]; 80 uM): 84.0905% | Relative proliferation rate (%) ([16]; 80 uM): 77.7454% and 83.8221% and 90.704% | optical density ([16]; 80 uM): 0.229 and 0.171 and 0.103 | Relative proliferation rate (%) mean ([17]; 0.0049 uM): 4.824% | Relative proliferation rate (%) ([17]; 0.0049 uM): 3.385% and 4.869% and 6.219% | optical density ([17]; 0.0049 uM): 0.999 and 1.016 and 0.95 | Relative proliferation rate (%) mean ([17]; 0.078 uM): 19.5052% | Relative proliferation rate (%) ([17]; 0.078 uM): 16.5377% and 19.5693% and 22.4087% | optical density ([17]; 0.078 uM): 0.863 and 0.859 and 0.786 | Relative proliferation rate (%) mean ([17]; 0.3125 uM): 28.7249% | Relative proliferation rate (%) ([17]; 0.3125 uM): 24.9516% and 28.7453% and 32.4778% | optical density ([17]; 0.3125 uM): 0.776 and 0.761 and 0.684 | Relative proliferation rate (%) mean ([17]; 1.25 uM): 33.0518% | Relative proliferation rate (%) ([17]; 1.25 uM): 30.3675% and 33.0524% and 35.7354% | optical density ([17]; 1.25 uM): 0.720 and 0.715 and 0.651 | Relative proliferation rate (%) mean ([17]; 5 uM): 54.1864% | Relative proliferation rate (%) ([17]; 5 uM): 49.8066% and 54.2135% and 58.539% | optical density ([17]; 5 uM): 0.519 and 0.489 and 0.420 | Relative proliferation rate (%) mean ([17]; 20 uM): 62.4741% | Relative proliferation rate (%) ([17]; 20 uM): 57.4468% and 62.4532% and 67.5222% | optical density ([17]; 20 uM): 0.440 and 0.401 and 0.329 | Relative proliferation rate (%) mean ([17]; 80 uM): 75.0057% | Relative proliferation rate (%) ([17]; 80 uM): 68.472% and 74.9064% and 81.6387% | optical density ([17]; 80 uM): 0.326 and 0.268 and 0.186
